Experimental findings from patent US11345694B2, “Antibacterial compounds” (DISCUVA LTD., priority 2017, dated 2022) are described below.

pIC50: −log10 of the molar value. Converted amounts (≈) assume the structure as drawn. Read-outs that look alike come from different tables or passages of the source.

Test [1] concerns Pseudomonas aeruginosa ATCC 33359 (PA). Put plainly: MIC broth microdilution. The class given is cell-based. To be noted: for MIC: ATCC33359. The essentials:
(§1)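 Compounds are diluted two-fold across a final range of 0.39-200 μM, keeping DMSO no higher than 2% final. Bacteria in cation-adjusted Müller-Hinton broth are then incubated at 37° C under ambient atmosphere for 20-24 h. The lowest growth-inhibiting concentration gives the MIC.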

Test [2] deals with Staphylococcus aureus ATCC 35556 (SA). In words: MIC broth microdilution. It is filed as cell-based. To be noted: for MIC: ATCC35556. Summed up:
as §1
(In general: Broth dilution looks for growth in wells or tubes with falling amounts of substance.)

In test [3] the test system is Escherichia coli K12 (EC). In words: MIC broth microdilution. It is filed as cell-based. The essentials: as §1
The subject of test [4] is Acinetobacter baumannii ATCC 17978 (AB). In words: MIC broth microdilution. The class given is cell-based. Particulars: for MIC: ATCC17978. Summed up: as §1
Test [5] has as its system Klebsiella pneumoniae ATCC 10031 (KP2). In words: MIC broth microdilution. To be noted: for MIC: ATCC10031. It is filed as cell-based. The essentials: (§2)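 Two-fold dilution series, 0.39-200 μM final, max 2% DMSO; CA-MHB; 37° C, ambient air, 20-24 h; MIC = lowest conc. inhibiting visible growth. CLSI broth microdilution.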
Test [6] relates to E. coli NCTC 13441 (UPEC). In words: MIC broth microdilution. The class given is cell-based, Escherichia coli. To be noted: for MIC: Escherichia coli, NCTC13441. The essentials: as §1
Test [7] concerns K. pneumoniae NCTC 13438 (KP1). Put plainly: MIC broth microdilution. It is filed as cell-based, Klebsiella pneumoniae. To be noted: for MIC: Klebsiella pneumoniae, NCTC13438. Summed up: as §2
The test system of test [8] is K. pneumoniae H154600588 (KP8). In words: MIC broth microdilution. To be noted: for MIC: Klebsiella pneumoniae. It is filed as cell-based, Klebsiella pneumoniae. Summed up: as §2
For test [9], the system named is K. pneumoniae H151440671 (KP10). In words: MIC broth microdilution. It is filed as cell-based, Klebsiella pneumoniae. Particulars: for MIC: Klebsiella pneumoniae. The essentials:
as §2

For test [10], the system named is K. pneumoniae H154020667 (KP6). Put plainly: MIC broth microdilution. It is filed as cell-based, Klebsiella pneumoniae. To be noted: for MIC: Klebsiella pneumoniae. Summed up: as §2
Test [11] deals with K. pneumoniae H154300688 (KP9). In words: MIC broth microdilution. The class given is cell-based, Klebsiella pneumoniae. To be noted: for MIC: Klebsiella pneumoniae. The essentials: as §2
In test [12] the test system is K. pneumoniae H154640784 (KP7). Put plainly: MIC broth microdilution. The class given is cell-based, Klebsiella pneumoniae. Particulars: for MIC: Klebsiella pneumoniae. Summed up: as §2
Test [13] deals with K. pneumoniae ATCC 700603 (KP3). In words: MIC broth microdilution. It is filed as cell-based, Klebsiella pneumoniae. Particulars: for MIC: Klebsiella pneumoniae, ATCC700603. The essentials:
as §2

The test system of test [14] is K. pneumoniae H154680676 (KP5). In words: MIC broth microdilution. It is filed as cell-based, Klebsiella pneumoniae. To be noted: for MIC: Klebsiella pneumoniae. Summed up:
as §2

The subject of test [15] is human hepatocarcinoma cell line ATCC HB-8065 (HepG2). Put plainly: Human cell viability (CellTiter-Glo). To be noted: HepG2 cells, 24 h incubation, CellTiter-Glo luminescence, 0.2-100 μM, read-out: IC50 values against the HepG2 cell line. The class given is cell-based. Summed up: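 Cytotoxicity was read as CellTiter-Glo luminescence after 24 h compound exposure at 37° C., 5% CO2. Final concentrations spanned 0.2-100 μM in two-fold steps, in 1% FBS MEM with 1% DMSO, on cells plated a day earlier at 20,000/well. IC50 came from 4-parameter logistic regression.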
For orientation: In ATP-based viability assays light output follows the ATP content of the culture.

Test [16] has as its system Klebsiella pneumoniae ATCC 51504 (KP4). In words: MIC broth microdilution. It is filed as cell-based. Particulars: ATCC51504. Summed up: as §1

For the compound `COc1ncc(-c2nc(N)[nH]c2-c2ccnc(C)c2)cc1F` [Example 29, 4-(5-Fluoro-6-methoxypyridin-3-yl)-5-(2-methylpyridin-4-yl)-1H-imidazol-2-amine], the MIC is more than 100 µM in [1]; more than 100 µM in [2]; not above 1 µM in test [3]; more than 100 µM in test [4]; not above 1 µM in test [5]; not above 1 µM in [6]. The MIC was in the range of 10 to 100 µM (≈ 2.99 to 29.9 µg/mL) in test [7]; 10 to 100 µM (≈ 2.99 to 29.9 µg/mL) in test [8]; 1 to 10 µM (≈ 0.299 to 2.99 µg/mL) in test [9]; 1 to 10 µM (≈ 0.299 to 2.99 µg/mL) in [10]; 1 to 10 µM (≈ 0.299 to 2.99 µg/mL) in [11]; 10 to 100 µM (≈ 2.99 to 29.9 µg/mL) in test [12]. Also, the values for the MIC in test [13] and in test [14] were 10 to 100 µM (≈ 2.99 to 29.9 µg/mL) and 1 to 10 µM (≈ 0.299 to 2.99 µg/mL), respectively. Further, the pIC50 in test [15] (Homo sapiens) is less than 4.00.

In the case of `Cc1cc(-c2[nH]c(N)nc2-c2ccc3c(c2)OCCO3)ccn1` [Example 32, 4-(2,3-Dihydrobenzo[b][1,4]dioxin-6-yl)-5-(2-methylpyridin-4-yl)-1H-imidazol-2-amine], the “MIC PA” value in test [1] was “D (a MIC of over 100 is assigned the letter D)”. For the same compound, the “MIC SA” value in test [2] was “D (a MIC of over 100 is assigned the letter D)”. Moreover, the “MIC EC” value in [3] is “A (an MIC (μM) of less or equal to 1 is assigned the letter A)”. Also, the “MIC AB” value in test [4] is “D (a MIC of over 100 is assigned the letter D)”. Moreover, the “MIC KP2” value in test [5] is “A (an MIC (μM) of less or equal to 1 is assigned the letter A)”. Moreover, the MIC in test [16] fell in the range of 1 to 10 µM (≈ 0.308 to 3.08 µg/mL). Further, the “MIC UPEC” value in test [6] is “A (an MIC (μM) of less or equal to 1 is assigned the letter A)”. Moreover, the “MIC KP1” value in [7] is recorded as “B (a MIC of from 1 to 10 is assigned the letter B)”. Also, the “MIC KP8” value in [8] is listed as “B (a MIC of from 1 to 10 is assigned the letter B)”. In addition, the “MIC KP10” value in test [9] was “B (a MIC of from 1 to 10 is assigned the letter B)”. For the same compound, the “MIC KP6” value in [10] was “B (a MIC of from 1 to 10 is assigned the letter B)”. Further, in test [11], the “MIC KP9” value is “B (a MIC of from 1 to 10 is assigned the letter B)”. Further, the “MIC KP7” value in [12] was “B (a MIC of from 1 to 10 is assigned the letter B)”. In test [13], the “MIC KP3” value was “B (a MIC of from 1 to 10 is assigned the letter B)”. In test [14], the “MIC KP5” value is “B (a MIC of from 1 to 10 is assigned the letter B)”. The negative logarithm of the IC50 (pIC50) in [15] is less than 4.00.

With `Nc1nc(-c2ccc3c(c2)NCCO3)c(-c2ccnc(Cl)c2)[nH]1` [Example 45, 5-(2-Chloropyridin-4-yl)-4-(3,4-dihydro-2H-benzo[b][1,4]oxazin-6-yl)-1H-imidazol-2-amine], the minimum inhibitory concentration (MIC) in test [1] is more than 100 µM; in [2] it was more than 100 µM; in test [3], not above 1 µM; in test [4], more than 100 µM; in test [5], not above 1 µM; in test [16], 1 to 10 µM (≈ 0.328 to 3.28 µg/mL). Moreover, the MIC in [6] was not above 1 µM; in test [7], 1 to 10 µM (≈ 0.328 to 3.28 µg/mL); in test [8], 10 to 100 µM (≈ 3.28 to 32.8 µg/mL); in [9], 1 to 10 µM (≈ 0.328 to 3.28 µg/mL); in test [10], 1 to 10 µM (≈ 0.328 to 3.28 µg/mL); in test [11] it was 1 to 10 µM (≈ 0.328 to 3.28 µg/mL). Moreover, the minimum inhibitory concentration (MIC) in [12], in test [13] and in test [14] was 1 to 10 µM (≈ 0.328 to 3.28 µg/mL) throughout. Moreover, the negative-log IC50 (pIC50) in test [15] (Homo sapiens) is less than 4.00.

As to `Cc1cc(-c2[nH]c(N)nc2-c2cc(F)c3c(c2)NCCO3)ccn1` [Example 49, 4-(8-Fluoro-3,4-dihydro-2H-benzo[b][1,4]oxazin-6-yl)-5-(2-methylpyridin-4-yl)-1H-imidazol-2-amine], the MIC is more than 100 µM in test [1]; more than 100 µM in test [2]; not above 1 µM in test [3]; more than 100 µM in [4]; not above 1 µM in [5]; not above 1 µM in test [16]. Besides, the MIC in test [6] was 1 to 10 µM (≈ 0.325 to 3.25 µg/mL); in test [7] it was 1 to 10 µM (≈ 0.325 to 3.25 µg/mL); in [8], 1 to 10 µM (≈ 0.325 to 3.25 µg/mL); in test [9], 1 to 10 µM (≈ 0.325 to 3.25 µg/mL); in test [10], not above 1 µM; in test [11], 1 to 10 µM (≈ 0.325 to 3.25 µg/mL). For the same compound, the results for the minimal inhibitory concentration (MIC) in test [12], in test [13] and in test [14] were 1 to 10 µM (≈ 0.325 to 3.25 µg/mL), 1 to 10 µM (≈ 0.325 to 3.25 µg/mL) and not above 1 µM, respectively. Also, the pIC50 in test [15] (Homo sapiens) was less than 4.00.

Take `Cc1cc(-c2[nH]c(C)nc2-c2ccc3c(c2)OCCO3)ccn1` [Example 84, 4-(4-(2,3-Dihydrobenzo[b][1,4]dioxin-6-yl)-2-methyl-1H-imidazol-5-yl)-2-methylpyridine]: the MIC in test [1] is more than 100 µM; in test [2], more than 100 µM; in [3], 1 to 10 µM (≈ 0.307 to 3.07 µg/mL); in test [4] it was more than 100 µM; in test [5], not above 1 µM; in test [6], 1 to 10 µM (≈ 0.307 to 3.07 µg/mL). The MIC was in the range of 10 to 100 µM (≈ 3.07 to 30.7 µg/mL) in test [7]; 10 to 100 µM (≈ 3.07 to 30.7 µg/mL) in test [8]; 1 to 10 µM (≈ 0.307 to 3.07 µg/mL) in test [9]; 1 to 10 µM (≈ 0.307 to 3.07 µg/mL) in test [10]; 10 to 100 µM (≈ 3.07 to 30.7 µg/mL) in test [11]; 10 to 100 µM (≈ 3.07 to 30.7 µg/mL) in test [12]. The minimum inhibitory concentration (MIC) in [13] fell in the range of 10 to 100 µM (≈ 3.07 to 30.7 µg/mL); in [14] it was 1 to 10 µM (≈ 0.307 to 3.07 µg/mL). Also, the pIC50 in test [15] (Homo sapiens) is less than 4.00.

What is called MIC is the lowest concentration found to suppress growth. Read a low MIC as a more susceptible organism. For orientation: pIC50 means the IC50 on a negative log10 scale, so that one unit is a factor of ten.
